Source: US20240342138A1, “MICROTUBULE TARGETING AGENTS” (BPGbio, Inc., priority 2023, published 2024)

Key:
[1] = Blood brain barrier permeability (PVDF membrane coated with porcine brain polar lipid extract); type: in vitro ADME; settings: for recovery at 4 h, 10 μM: pig, not told
Procedure: Preparation of Donor Solution a) 0.2 mM working solution was prepared by diluting 10 mM stock solution with DMSO. b) 10 μM donor solution (5% DMSO) was prepared by diluting 20 μL of working solution with 380 μL PBS. 2) 150 μL of 10 μM donor solutions to each well of the donor plate, whose PVDF membrane was precoated with 5 μL of 1% brain polar lipid extract (Porcine)/dodecane mixture. Duplicates were prepared. 3) 300 μL of PBS was added to each well of the PTFE acceptor plate. 4) The donor plate and acceptor plate were combined together and incubated for 4h at room temperature with shaking at 300 rpm. 5) Preparation of TO sample: 20 μL donor solution was transferred to new well followed by the addition of 250 μL PBS (DF: 13.5), 130 μL ACN (containing internal standard) as TO sample. 6) Preparation of acceptor sample: The plate was removed from incubator. 270 μL solution was transferred from each acceptor well and mixed with 130 μL ACN (containing internal standard) as acceptor sample. 7) Preparation of donor sample: […] was transferred from each donor well and mixed with 250 μL PBS (DF: 13.5), 130 μL ACN (containing internal standard) as donor sample. 8) Acceptor samples and donor samples were all analyzed by LC/MS/MS.

[2] = test system: colchicine binding site of tubulin; test: EBI labeling assay in MIA PaCa2 cells (Western blot); type: cell-based; settings: 2 hours compound, then 2 hours 100 μM EBI, FIG. 2, FIG. 3
Procedure: MIA PaCa2 cells were cultured in DMEM+10% FBS and 1% P/S. Cells were plated at 1.5-2×10^6 in 60 mm dishes. For drug treatments, cells were treated the day after plating with 0.1% DMSO or the compounds tested at the concentrations indicated in FIG. 2 for 2 hours.
• Cells were treated with compounds for 2 hours at 37°, 5% CO2 (in the cell culture incubator), and then for an additional 2 hours with 100 μM EBI (with compounds present) under the same conditions. • Cells were then harvested with Trypsin and pelleted at 500 g for 3 minutes. • Cells were rinsed in 1 mL PBS and transferred to clean epi tubes. […] BCA assay plates were incubated for 15 minutes in the 37-degree incubator in the outer molecular lab. • After protein normalization (including addition of reducing Laemmli buffer from a 6× stock) samples were boiled at 95 degrees for 3 minutes and frozen for subsequent Western Blotting.
Significance in difference of treated MIA PaCa-2 cells to 0.1% DMSO treated cells were tested by Student t test (* p<0.05; ** p<0.01; *** p<0.001).

[3] = test system: HCT116 cells; test: Kinetochore assembly, immunocytochemistry / confocal microscopy; type: cell-based; settings: 300 nM, 24h
Procedure: The HCT116 cells were cultured using DMEM media supplemented with 10% FBS and 1% Pen/Strep. Cells were maintained to a maximum of 80% confluency before being split and plated into coverslips in 12-well plates.
1. HCT116 cells were plated on Poly-D-Lysine German Glass Coverslips (#1.5, 18 mm)
2. After 24h cells were treated with 300 nM of Compound 1 and Nocodozole.
3. After 24h cells were washed briefly with PBS and fixed with warm 4% paraformaldehyde at room temperature for 10 min.
4. Cells were permeabilized and blocked in 10% goat serum, 0.5% Triton-X in PBS for 1 hr.
5. Cells were incubated with Primary antibodies overnight.
6. Washed 3× with PBS for 10 min
7. Incubated with secondary antibodies at room temperature for 1 hr.
8. Washed 3× with PBS for 10 min
9. Coverslips were mounted with ProLong Gold Anti-Fade Mount with DAPI and imaged with Olympus FV1200 MPE Microscope.
10. Images were collected with identical confocal settings for all of the samples and Z-stacked images were projected with maximal projection mode using Fluor View Software.
1. Selected cells of interest using the drawing/selection tools (i.e. rectangle, circle, polygon or freeform).
2. From the Analyze menu selected “Measure.”
3. Selected region with no fluorescence to be my background.
4. Repeated these steps for other cells in the field of view
5. Used the CTCF formula to calculate Mad1 expression:
CTCF=Integrated Density−(Area of selected cell×Mean fluorescence of background readings)
Micrographs were imaged using Olympus FV1200 MPE confocal microscope at 63× oil. White arrows indicate dividing cells. Representative images of N=3 biological replicates. Significance in difference of treated HCT116 cells to untreated cells was tested by Student t test (** p<0.01).

[4] = test system: Triple Negative Breast Cancer patient-derived organoids CTG-1520, CTG-0896, CTG-1017; test: Viability of PDO models of taxane resistance (CellTiter-Glo, 5 days); type: cell-based, human; settings: same patient before (CTG-1017) and after (CTG-1520) taxane-based chemotherapy
Procedure: FIGS. 9A and 9B show potency of Compound 1 in patient-derived organoid (PDO) models of taxane resistance. Patient-derived organoids were treated with Compound 1, paclitaxel or controls (0.1% DMSO, positive control—10% DMSO) for 5 days. Viability was assessed using the CellTiter-Glo® assay. IC50 and maximal (max) inhibition values were extrapolated from the viability curves. A) Model overview and dose response curves to Compound 1 and paclitaxel. B) Summary of CellTiter-Glo results in all three models tested. Compiled data of N=4 replicates.
CTG-1520 and CTG-0896 were derived from Triple Negative Breast Cancer (TNBC) patients post-treatment, and progression on a taxane-based therapy and the models' resistance to paclitaxel was confirmed by testing in vivo PDX (Patient-derived xenograft) tumor growth. […] Compound 1 and paclitaxel were tested head-to-head in each model in a dose-curve setting. 10% DMSO was used as the positive control for induction of 100% cell cytotoxicity.

[5] = test system: Triple Negative Breast Cancer patient-derived organoids CTG-1520, CTG-0896, CTG-1017; settings: CTG-1520 ex vivo; Champion Oncology Lumen Platform database; cited from earlier work
[6] = test system: CTG-1520 PDX tumors; settings: CTG-1520 in vivo; Champion Oncology Lumen Platform database; cited from earlier work
[7] = test system: CTG-1017; settings: CRO historical data; cited from earlier work

Structure (SMILES): CC(C)NCC(O)COc1ccc(CC(N)=O)cc1 (centres unmarked) [Atenolol, reference compound]
- recovery at 4 h, 10 μM [1]: < 100%

Structure (SMILES): CC(C)NCC(O)COc1cccc2ccccc12 (centres unmarked) [Propranolol, reference compound]
- Permeability ([1]; 10 μM, 4 h): High
- Papp at 4 h, 10 μM ([1]; PAMPA, read-out: Mean Pe): 4.74 ×10⁻⁶ cm/s
- recovery at 4 h, 10 μM [1]: 27.7%

Structure (SMILES): COC(=O)Nc1nc2cc(C(=O)c3cccs3)ccc2[nH]1 [nocodazole, reference compound]
- Formation of EBI:β-tubulin adducts [2]: inhibited formation of the EBI:β-tubulin adducts
- Mitotic spindle formation ([3]; FIG. 4A): lack of proper mitotic spindle formation
- Mad1 signal intensity ([3]; FIG. 4B): increase in Mad1 signal intensity

Structure (SMILES): CC(=O)O[C@H]1C(=O)[C@@]2(C)[C@H]([C@H](OC(=O)c3ccccc3)[C@]3(O)C[C@H](OC(=O)[C@H](O)[C@@H](NC(=O)c4ccccc4)c4ccccc4)C(C)=C1C3(C)C)[C@]1(OC(C)=O)CO[C@@H]1C[C@@H]2O [paclitaxel]
- Retention of potency in matched PDO models [4]: did not
- max effect [5]: 29.1%
- TGI [6]: 10%
- Sensitivity of model in vivo [7]: sensitive
